# Source: US11400112B2, “Combination therapy for treatment of leukemia” (St George's Hospital Medical School, priority 2018, dated 2022)
# Columns and labels:
# [1] = test system: ATO resistant cell lines (NB4-EVAsR1, UF-1); assay: Viability of ATO resistant cell lines (apoptosis assay); assay type: cell-based; settings: NB4-EVAsR1 and UF-1; 48 hours
# Method: (§1) In particular, the effects of Metformin, Dichloroacetate (DCA) and Artesunate (ART) in combination with arsenic trioxide were evaluated. […] Methods i) In vitro cytotoxicity assay: 10^5 cells/well were seeded in a 96 well plate and treated with increasing concentration of artesunate and arsenic trioxide and incubated for 48 hours. At the end of 48 hrs MTT was added, followed by SDS to solubilize the formazan crystals formed by the viable cells. The absorbance was measured on an ELISA plate reader SpectraMaxM4 (Molecular Devices) at a test wavelength of 570 nm and a reference wavelength of 630 nm to measure the optical density. […] An IC-50 value was generated if significant cytotoxicity was detected. […] CO2 incubator, the viability of the leukemic cells was measured using an Annexin V/7-aminoactinomycin D (7AAD) apoptosis assay kit (BD Pharmingen, San Diego, Calif., USA) as per the manufacturer's protocol. The flow cytometry data were analysed using Cell Quest pro software (BD Biosciences, San Jose, Calif., USA). iii) Measurement of Glucose Uptake: 5×10^5 cells were stained with 2-NBDG (fluorescent analogue of 2-Deoxyglucose) for 10 minutes, washed and the fluorescence measured at 485 nm/595 nm using Spectramax M4. […] The ratio of red to green fluorescence (590/530) was calculated and the Δψm of treated cells compared with the untreated cells.
# NB4 naïve cells = assay: Viability of NB4 naïve cells (apoptosis assay, Annexin V/7AAD); assay type: cell-based; settings: 48 hours
# Method: as §1
# [2] = mouse, in vivo
# Method: To further validate this in vitro observation, in vivo studies were performed on a mouse model of acute promyelocytic leukemia.
# U937 cells = assay: Viability of U937 cells (apoptosis assay, Annexin V/7AAD); assay type: cell-based; settings: 48 hours
# Method: The half-maximal inhibitory concentration (IC-50) values were generated using Graph Pad Prism5 software (La Jolla, Calif., USA). ii) Apoptosis Assay: Leukemic cell lines were added (2×10^5 cells/well) in 24-well plates and treated with different drugs reported to disrupt the metabolic adaptation of the leukemia cells along with appropriate controls. After 48 h of incubation at 37° C. CO2 incubator, the viability of the leukemic cells was measured using an Annexin V/7-aminoactinomycin D (7AAD) apoptosis assay kit (BD Pharmingen, San Diego, Calif., USA) as per the manufacturer's protocol. The flow cytometry data were analysed using Cell Quest pro software (BD Biosciences, San Jose, Calif., USA). iii) Measurement of Glucose Uptake: 5×10^5 cells were stained with 2-NBDG (fluorescent analogue of 2-Deoxyglucose) for 10 minutes, washed and the fluorescence measured at 485 nm/595 nm using Spectramax M4.
# [3] = test system: malignant cells (NB4 naïve, NB4-EVAsR1, U937, THP-1, Kasumi, Jurkat cell lines); assay: Apoptosis assay on leukemic cell lines (FIG. 5); assay type: cell-based; settings: 2 μM ATO, 5 μM ART, 48 hours
# Method: as §1
# [4] = test system: acute promyelocytic leukemia (APL); settings: standard of care; cited from earlier work
compound,measurement,setting,value
"O=CC[C@@H](O)[C@H](O)[C@H](O)CO [2-DOG, 2-Deoxy-D-glucose]",viability of the ATO resistant cell lines,[1],resistant
same,viability of NB4 naïve cells,NB4 naïve cells,sensitive
"NCC(=O)CCC(=O)O [ALA, Delta-aminolevulinic acid]",toxicity in mice,[2],significant toxicity
same,viability of AML cells (Annexin V-/7AAD- cells),"U937 cells; ATO 1 μM, ART 5 μM, ALA 1 mM, DFO 20 μM, FIG. 7",did not affect
"C[C@H]1[C@H](OC(=O)CCC(=O)O)O[C@@H]2O[C@@]3(C)CC[C@H]4[C@H](C)CC[C@@H]1[C@@]24OO3 [ART, artesunate]",effect on the malignant cells (Annexin V-/7AAD- cells),[3],did not have a significant effect
"N#CC(C#N)=NNc1ccc(OC(F)(F)F)cc1 [FCCP, Carbonyl cyanide-4-(trifluoromethoxy)phenylhydrazone]",viability of the ATO resistant cell lines,[1],remained unaffected
CN(C)C(=N)N=C(N)N [Metformin],effect on the malignant cells (Annexin V-/7AAD- cells),[3],did not have a significant effect
Arsenic trioxide [ATO],outcome in the management of APL,[4],greater than 80%
hemin,viability of AML cells (Annexin V-/7AAD- cells),"U937 cells; hemin instead of ALA, FIG. 8",did not affect
